Results: ChEMBL document CHEMBL1201862, “PubChem BioAssay data set” (2004)
Active and inactive are the calls of the source.

Key:
Streptococcus = test: GAS UMAA2166 growth inhibition – luminescence, BacTiterGlo, counter-screen for streptokinase expression inhibitor project, dose response (AID 1915); format: functional, organism-based;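 further: potency for reduction of bacterial viability or growth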
[1] = system: Streptococcus sp. 'group A'; test: Streptococcus pyogenes SK(-)GAS viability under kanamycin – luminescence, BacTiterGlo, confirmation, counter-screen for streptokinase expression inhibitor project, dose response (AID 1900); format: functional, organism-based
Streptokinase A = target: T1, Streptokinase A (Streptococcus pyogenes serotype M1, UniProt P10520); test: viability-normalized secreted streptokinase activity reduction – plasminogen activation absorbance, OD405, dose response (AID 1914); format: functional, Streptococcus pyogenes M1 GAS;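 further: secreted streptokinase activity via plasminogen activation per viability signal from cell pellet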
T1 sequence (P10520 whole entry): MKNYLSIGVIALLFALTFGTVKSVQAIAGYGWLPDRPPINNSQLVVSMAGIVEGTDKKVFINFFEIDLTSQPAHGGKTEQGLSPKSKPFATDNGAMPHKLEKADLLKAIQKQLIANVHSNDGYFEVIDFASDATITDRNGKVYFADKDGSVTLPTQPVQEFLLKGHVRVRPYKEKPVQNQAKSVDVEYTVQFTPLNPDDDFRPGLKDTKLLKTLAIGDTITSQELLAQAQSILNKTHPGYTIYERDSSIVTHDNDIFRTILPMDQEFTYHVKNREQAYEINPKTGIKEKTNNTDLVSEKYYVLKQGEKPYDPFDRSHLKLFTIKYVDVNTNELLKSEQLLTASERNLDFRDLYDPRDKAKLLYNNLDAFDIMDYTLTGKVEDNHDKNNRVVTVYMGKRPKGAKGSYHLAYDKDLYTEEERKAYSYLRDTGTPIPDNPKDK

[2] = target: T2, Heat shock factor protein 1 (Mus musculus, UniProt P38532); test: decrease of HSF1-responsive luciferase luminescence – cell-based, NIH3T3, dose retest, confirmation (AID 2382); format: functional;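 further: NIH3T3 fibroblasts with HSF1-driven luciferase reporter stressed by proteasome inhibitor MG132; luminescence from HSF1-driven luciferase expression after 8 hours of MG132 stress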
T2 sequence (P38532 whole entry): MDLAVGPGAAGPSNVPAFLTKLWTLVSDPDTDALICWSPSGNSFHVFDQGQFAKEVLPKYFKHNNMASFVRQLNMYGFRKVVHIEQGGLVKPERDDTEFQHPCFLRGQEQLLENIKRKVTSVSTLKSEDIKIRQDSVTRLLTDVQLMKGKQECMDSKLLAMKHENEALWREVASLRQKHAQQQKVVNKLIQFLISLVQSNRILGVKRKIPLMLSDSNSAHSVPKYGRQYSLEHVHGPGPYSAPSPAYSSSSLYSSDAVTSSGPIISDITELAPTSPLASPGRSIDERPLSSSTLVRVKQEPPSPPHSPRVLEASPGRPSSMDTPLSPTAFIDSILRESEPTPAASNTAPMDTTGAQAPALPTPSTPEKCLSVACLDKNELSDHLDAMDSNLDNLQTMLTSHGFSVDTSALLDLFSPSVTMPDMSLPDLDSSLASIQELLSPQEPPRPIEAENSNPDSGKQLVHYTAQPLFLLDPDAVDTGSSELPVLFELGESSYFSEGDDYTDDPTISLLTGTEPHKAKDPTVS

[3] = Trypanosoma cruzi growth suppression in host cells – NIH3T3 host cells, beta-gal luminescence, confirmation (AID 2044); format: functional, cell-based;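 further: intracellular parasites grown in NIH/3T3 mouse fibroblasts as host cells; luminescent beta-galactosidase reporter signal from transgenic T. cruzi replicating inside host cells; inhibitors lower the luminescence signal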
[4] = NIH3T3 cell viability loss – ATP luminescence, mouse fibroblasts, counter-screen, dose response (AID 2010); format: functional, cell-based;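 further: cells exposed to compound for about 90 hours before reading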
[5] = alpha-synuclein stem-loop luciferase translation blockers – H4 neuroglioma cells, luminescence, confirmation (AID 1988); format: functional, cell-based
[6] = luciferase reporter signal suppression in cells – H4 neuroglioma cells, luminescence, dose response (AID 1990); format: functional, cell-based
[7] = Luminescence Cell-Based Dose Response HTS to Identify Inhibitors of 5'UTR Stem-Loop Driven Prion Protein mRNA Translation in H4 Neuroglioblastoma Cells. [Related pubchem assays: 1827 (Project Summary), 1813 (Primary HTS)]; format: functional
[8] = Luminescence Cell-Based Dose Retest to Confirm Inhibitors of Cancer Stem Cells. [Related pubchem assays (depositor defined):AID2717, AID2721]; format: functional; conditions: Homo sapiens
Cytochrome P450 2C19 = Cytochrome P450 2C19 (Homo sapiens, UniProt P33261); test: Cytochrome panel assay with activity outcomes. Panel member name: p450-cyp2c19 Compounds with AC50 equal or less than 10 uM are considered active; format: functional
Chain of Cytochrome P450 2C19 (P33261 whole entry): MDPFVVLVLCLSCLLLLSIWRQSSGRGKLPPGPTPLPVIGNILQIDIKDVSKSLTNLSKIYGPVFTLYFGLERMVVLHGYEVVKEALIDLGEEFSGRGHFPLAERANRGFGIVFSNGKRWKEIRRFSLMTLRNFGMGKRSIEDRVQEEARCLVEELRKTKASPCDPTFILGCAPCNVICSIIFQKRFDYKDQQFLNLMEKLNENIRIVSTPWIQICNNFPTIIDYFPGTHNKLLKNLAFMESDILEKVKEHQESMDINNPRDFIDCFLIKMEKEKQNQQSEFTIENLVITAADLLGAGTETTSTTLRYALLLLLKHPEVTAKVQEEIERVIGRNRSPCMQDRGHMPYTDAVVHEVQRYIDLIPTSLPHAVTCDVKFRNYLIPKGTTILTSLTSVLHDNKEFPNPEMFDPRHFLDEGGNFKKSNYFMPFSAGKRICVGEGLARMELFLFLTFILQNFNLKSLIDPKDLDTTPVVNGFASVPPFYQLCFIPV

Row | SMILES | EC50 [2] | EC50 [3] | EC50 [4] | also measured
1 | O=C(OCc1ccc(COC(=O)c2ccc(O)cc2)cc1)c1ccc(O)cc1 | – | – | – | EC50 (Streptococcus): 8.51 µM (active); EC50 [1]: 5.67 µM (active); EC50 (Streptokinase A): > 150 µM (not active)
2 | O=C(NCc1ccco1)C1CCN(S(=O)(=O)c2cccc([N+](=O)[O-])c2)CC1 | > 195 µM (not active) | – | – | –
3 | COc1ccc([C@@H]2C[C@@H](c3ccccc3)Oc3c(C)ccc(C(C)C)c32)cc1 | > 195 µM (not active) | – | – | –
4 | CCCCCSc1nc(C)c(CC(=O)O)c(O)n1 | > 195 µM (not active) | – | – | –
5 | Cc1ccc(CCNC(=O)CN=C(S)N(Cc2ccccc2)Cc2cccnc2)cc1 | – | 1.28 µM (active) | > 60 µM (not active) | –
6 | COc1cc(C(=O)N2CCN(C(=O)CC(C)C)CC2)cc(OC)c1OC | 9.31 µM (active) | – | – | –
7 | COc1ccc(OC)c(NC(=O)C2CCCN(S(=O)(=O)c3c(C)nn(C)c3C)C2)c1 (centres undefined) | > 195 µM (not active) | – | – | –
8 | Brc1ccccc1-c1nnc2sc(Cc3ccccc3)nn12 | – | – | – | EC50 [5]: > 120 µM (not active); EC50 [6]: 64.7 µM (active); EC50 [7]: > 120 µM (not active)
9 | Cc1ccc2nc3c(cc(S(=O)(=O)c4ccccc4)c(=N)n3Cc3ccco3)c(=O)n2c1 | – | 3 µM (active) | > 60 µM (not active) | –
10 | COc1cc(CNc2ccc(CNc3nc[nH]n3)cc2)ccc1OCc1ccccc1 | – | – | – | AC50 [8]: 2.25 µM (active)
11 | C[C@@]12CC[C@H](O)C[C@@H]1CC[C@H]1[C@@H]2C[C@@H](O)[C@]2(C)[C@@H](C3=CC(=O)OC3)CC[C@]12O | – | – | – | AC50 (Cytochrome P450 2C19): inconclusive
12 | Cc1ccc(OCC(=O)Nc2ccccc2C(=O)N2CCCCC2)cc1 | > 195 µM (not active) | – | – | –
13 | CCC(C)n1c(C)nc2c(c1=O)c1nc3ccccc3nc1n2CCC1=CCCCC1 (centres undefined) | – | 3.7 µM (active) | > 60 µM (not active) | –
14 | CC(C)(CNC(=O)c1ccccc1)CNC1=NS(=O)(=O)c2ccccc21 | – | – | – | EC50 (Streptococcus): > 150 µM (not active); EC50 [1]: > 150 µM (not active); EC50 (Streptokinase A): > 150 µM (not active)
15 | CC1CCCN(CC(O)COCC2COc3ccccc3O2)C1 (centres undefined) | – | – | – | AC50 (Cytochrome P450 2C19; read-out: AC50): 5.01 µM (inconclusive)
16 | COc1ccc(C(=O)C2CCCN(Cc3sc(N4CCCC4)nc3Cl)C2)c(OC)c1 (centres undefined) | – | 0.927 µM (active) | > 60 µM (not active) | –
17 | CCCOC(=O)c1ccc(Oc2c(-c3ccc(OCC)cc3O)n[nH]c2C)cc1 | – | – | – | EC50 (Streptokinase A): > 150 µM (not active)
18 | Cc1cc(C)cc(N2C(=O)CN(Cc3ccccc3)C2=S)c1 | > 195 µM (not active) | – | – | –
19 | CCCOc1ccc(Cn2c(=O)oc3ccc(C)cc32)cc1OC | > 195 µM (not active) | – | – | –
20 | Cc1ccc(OCCCCN2CCCCC2)c(Br)c1 | – | 2.16 µM (active) | > 60 µM (not active) | –
21 | Cc1ccc(-n2nc3c(N4CCC(C(=O)NCCc5cccs5)CC4)nnc(C)c3c2C)cc1 | – | – | – | EC50 [6]: 19.2 µM (active); EC50 [7]: > 120 µM (not active)
22 | CCc1c(-c2ccccc2)nc2sc3c(c2c1N)CCCC3 | – | 2.01 µM (active) | > 60 µM (not active) | –
23 | COc1ccc(-c2csc(N(CCc3ccc(OC)c(OC)c3)C(=O)COc3ccccc3)n2)cc1 | > 195 µM (not active) | – | – | –
24 | O=C(O)c1ccc(Cl)c(S(=O)(=O)N(Cc2ccccc2)c2ccc(F)cc2)c1 | – | – | – | AC50 [8]: 31.2 µM (active)
25 | CCC(C)Oc1cc(-c2ccnc(Nc3cccc(Cl)c3)n2)ccn1 (centres undefined) | – | 1.7 µM (active) | 7.53 µM (active) | –
26 | CC(C)CCNC(=O)C1CCC(CNS(=O)(=O)c2cccc3nsnc23)CC1 (centres undefined) | – | > 30 µM (not active) | > 30 µM (not active) | –
27 | Cc1ccc(C(C)C)c(OCC(=O)NC2CCN(C)CC2)c1 | – | 1.21 µM (active) | > 60 µM (not active) | –
28 | CC1C=Cc2ccccc2N1C(=O)c1ccccc1 (centres undefined) | > 195 µM (not active) | – | – | –
